Legend:
Type in all cases: functional, cell-based
[1] = target: T1, Taste receptor type 2 member 5 (Homo sapiens) (UniProt Q9NYW4); assay: Agonist activity at human TAS2R5 expressed in HEK293T cells co-expressing Galpha15 assessed as increase in intracellular calcium level at 20 mM by Calcium-3 dye based fluorescence assay relative to control
T1 sequence (whole entry): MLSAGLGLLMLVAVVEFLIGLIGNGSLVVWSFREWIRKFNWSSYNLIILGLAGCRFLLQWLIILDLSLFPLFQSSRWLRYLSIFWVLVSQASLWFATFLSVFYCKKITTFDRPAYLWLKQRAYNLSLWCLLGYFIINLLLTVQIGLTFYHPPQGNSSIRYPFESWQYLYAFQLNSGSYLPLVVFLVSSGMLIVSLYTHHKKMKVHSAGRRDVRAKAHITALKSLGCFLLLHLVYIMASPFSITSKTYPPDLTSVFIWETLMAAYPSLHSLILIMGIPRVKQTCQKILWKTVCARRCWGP

[2] = target: T2, Taste receptor type 2 member 8 (Homo sapiens) (UniProt Q9NYW2); assay: Agonist activity at human TAS2R8 expressed in HEK293T cells co-expressing Galpha15 assessed as increase in intracellular calcium level at 20 mM by Calcium-3 dye based fluorescence assay relative to control
T2 sequence (whole entry): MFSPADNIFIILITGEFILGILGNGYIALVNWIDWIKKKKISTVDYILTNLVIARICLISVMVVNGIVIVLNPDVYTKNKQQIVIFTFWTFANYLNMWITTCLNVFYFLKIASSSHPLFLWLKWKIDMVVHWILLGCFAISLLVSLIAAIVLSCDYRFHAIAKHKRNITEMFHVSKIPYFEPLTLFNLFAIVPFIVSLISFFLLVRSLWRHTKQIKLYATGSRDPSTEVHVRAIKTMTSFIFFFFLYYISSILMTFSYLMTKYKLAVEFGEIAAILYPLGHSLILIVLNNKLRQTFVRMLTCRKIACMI

[3] = target: T3, Taste receptor type 2 member 9 (Homo sapiens) (UniProt Q9NYW1); assay: Agonist activity at human TAS2R9 expressed in HEK293T cells co-expressing Galpha15 assessed as increase in intracellular calcium level at 20 mM by Calcium-3 dye based fluorescence assay relative to control
T3 sequence (whole entry): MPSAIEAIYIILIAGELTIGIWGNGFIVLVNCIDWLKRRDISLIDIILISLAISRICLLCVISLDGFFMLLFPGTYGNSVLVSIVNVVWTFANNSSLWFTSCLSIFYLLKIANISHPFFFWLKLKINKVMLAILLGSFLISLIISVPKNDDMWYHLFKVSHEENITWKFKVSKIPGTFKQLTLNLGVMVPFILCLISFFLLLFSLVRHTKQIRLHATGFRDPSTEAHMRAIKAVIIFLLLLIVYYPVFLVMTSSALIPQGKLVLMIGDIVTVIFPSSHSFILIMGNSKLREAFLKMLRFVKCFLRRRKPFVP

[4] = target: T4, Taste receptor type 2 member 3 (Homo sapiens) (UniProt Q9NYW6); assay: Agonist activity at human TAS2R3 expressed in HEK293T cells co-expressing Galpha15 assessed as increase in intracellular calcium level at 20 mM by Calcium-3 dye based fluorescence assay relative to control
T4 sequence (whole entry): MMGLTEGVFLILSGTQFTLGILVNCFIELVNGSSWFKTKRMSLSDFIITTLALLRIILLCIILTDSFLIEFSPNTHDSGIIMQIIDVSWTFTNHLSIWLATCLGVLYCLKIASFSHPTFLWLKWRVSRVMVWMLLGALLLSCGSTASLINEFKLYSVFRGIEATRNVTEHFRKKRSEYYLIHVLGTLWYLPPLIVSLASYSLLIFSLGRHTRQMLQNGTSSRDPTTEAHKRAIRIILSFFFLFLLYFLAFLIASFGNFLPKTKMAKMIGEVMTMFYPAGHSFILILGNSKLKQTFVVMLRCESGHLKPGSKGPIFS

[5] = target: T5, Taste receptor type 2 member 38 (Homo sapiens) (UniProt P59533); assay: Agonist activity at human TAS2R38 expressed in HEK293T cells co-expressing Galpha15 assessed as increase in intracellular calcium level at 20 mM by Calcium-3 dye based fluorescence assay relative to control
T5 sequence (whole entry): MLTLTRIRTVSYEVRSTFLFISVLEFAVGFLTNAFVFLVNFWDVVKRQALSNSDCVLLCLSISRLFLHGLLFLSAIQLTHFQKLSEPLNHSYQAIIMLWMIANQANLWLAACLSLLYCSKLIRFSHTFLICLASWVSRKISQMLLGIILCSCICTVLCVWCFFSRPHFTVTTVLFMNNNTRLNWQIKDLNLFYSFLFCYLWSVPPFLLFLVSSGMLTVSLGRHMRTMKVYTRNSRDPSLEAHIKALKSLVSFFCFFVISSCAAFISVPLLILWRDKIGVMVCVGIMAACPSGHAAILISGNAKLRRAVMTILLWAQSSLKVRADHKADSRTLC

[6] = target: T6, Taste receptor type 2 member 60 (Homo sapiens) (UniProt P59551); assay: Agonist activity at human TAS2R60 expressed in HEK293T cells co-expressing Galpha15 assessed as increase in intracellular calcium level at 20 mM by Calcium-3 dye based fluorescence assay relative to control
T6 sequence (whole entry): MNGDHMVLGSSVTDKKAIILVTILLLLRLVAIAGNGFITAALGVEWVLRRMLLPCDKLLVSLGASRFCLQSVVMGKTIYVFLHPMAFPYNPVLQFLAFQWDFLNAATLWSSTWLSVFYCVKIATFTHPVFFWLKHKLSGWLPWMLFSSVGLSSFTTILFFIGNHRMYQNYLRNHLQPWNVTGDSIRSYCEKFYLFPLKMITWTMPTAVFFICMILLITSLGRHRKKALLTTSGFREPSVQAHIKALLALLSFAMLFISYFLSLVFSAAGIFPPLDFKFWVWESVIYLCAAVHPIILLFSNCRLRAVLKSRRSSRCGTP

[7] = target: T7, Taste receptor type 2 member 16 (Homo sapiens) (UniProt Q9NYV7); assay: Agonist activity at human TAS2R16 expressed in HEK293T cells co-expressing Galpha15 assessed as increase in intracellular calcium level at 20 mM by Calcium-3 dye based fluorescence assay relative to control
T7 sequence (whole entry): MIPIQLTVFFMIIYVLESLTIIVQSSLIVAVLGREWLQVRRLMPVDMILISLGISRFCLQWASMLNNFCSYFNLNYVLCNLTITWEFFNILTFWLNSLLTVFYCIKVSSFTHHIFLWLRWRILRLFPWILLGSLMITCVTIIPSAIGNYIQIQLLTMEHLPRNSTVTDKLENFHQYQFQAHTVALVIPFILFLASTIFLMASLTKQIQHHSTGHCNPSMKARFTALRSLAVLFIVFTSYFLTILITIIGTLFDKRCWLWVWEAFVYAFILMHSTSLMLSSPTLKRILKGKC

SMILES | Activity [1] [%] | Activity [2] [%] | Activity [3] [%] | Activity [4] [%] | Activity [5] [%] | Activity [6] [%] | Activity [7] [%]
CC(O)C(=O)[O-].[K+] (stereo unspecified) | < 40 | < 40 | > 40 | < 40 | < 40 | > 40 | < 40
CC1=CC(=O)NS(=O)(=O)O1 | < 40 | < 40 | > 40 | < 40 | < 40 | < 40 | > 40
[Cl-].[K+] [POTASSIUM CHLORIDE] | < 40 | < 40 | > 40 | < 40 | < 40 | > 40 | < 40
